Measured values reported in US10000451B2, “MAP4K4 (HGK) inhibitors” (SRI INTERNATIONAL, priority 2015, dated 2018).
Read-outs that look alike come from different tables or passages of the source.

How the values were obtained:
ADRRES = assay: Activity against cancer cell lines; format: cell-based
Excerpt: (§1) Exemplary data is shown below.

A498 = assay: Activity against cancer cell lines; format: cell-based; details: Homo sapiens
Excerpt: as §1

OVCAR4 = assay: Activity against cancer cell lines; format: cell-based
Excerpt: as §1

HCT15 = assay: Activity against cancer cell lines; format: cell-based; details: Homo sapiens, HCT-15
Excerpt: as §1

LOXIMVI = assay: Activity against cancer cell lines; format: cell-based; details: Homo sapiens, LOX IMVI
Excerpt: as §1

SKMEL2 = assay: Activity against cancer cell lines; format: cell-based; details: Homo sapiens, SK-MEL-2
Excerpt: as §1

CAKI1 = assay: Activity against cancer cell lines; format: cell-based; details: Homo sapiens, CAKI-1
Excerpt: as §1

HL60 = assay: Activity against cancer cell lines; format: cell-based
Excerpt: as §1

SF295 = assay: Activity against cancer cell lines; format: cell-based; details: Homo sapiens, SF-295
Excerpt: as §1

OVCAR8 = assay: Activity against cancer cell lines; format: cell-based
Excerpt: as §1

MDAMB435 = assay: Activity against cancer cell lines; format: cell-based; details: Homo sapiens, MDA-MB-435
Excerpt: as §1

RXF393 = assay: Activity against cancer cell lines; format: cell-based; details: Homo sapiens, RXF 393
Excerpt: as §1

UO31 = assay: Activity against cancer cell lines; format: cell-based; details: Homo sapiens, UO-31
Excerpt: as §1

SF539 = assay: Activity against cancer cell lines; format: cell-based; details: Homo sapiens, SF-539
Excerpt: as §1

MCF7 = assay: Activity against cancer cell lines; format: cell-based; details: Homo sapiens
Excerpt: as §1

SKMEL5 = assay: Activity against cancer cell lines; format: cell-based; details: Homo sapiens, SK-MEL-5
Excerpt: as §1

MOLT4 = assay: Activity against cancer cell lines; format: cell-based; details: Homo sapiens, MOLT-4
Excerpt: as §1

NCIH522 = assay: Activity against cancer cell lines; format: cell-based; details: Homo sapiens, NCI-H522
Excerpt: as §1

M14 = assay: Activity against cancer cell lines; format: cell-based; details: Homo sapiens
Excerpt: as §1

ACHN = assay: Activity against cancer cell lines; format: cell-based; details: Homo sapiens
Excerpt: as §1

SNB75 = assay: Activity against cancer cell lines; format: cell-based
Excerpt: as §1

MAP4K4 = MAP4K4 (Homo sapiens, UniProt O95819); assay: MAP4K4 kinase assay (in-house); format: biochemical
MAP4K4, sequence (O95819 whole entry): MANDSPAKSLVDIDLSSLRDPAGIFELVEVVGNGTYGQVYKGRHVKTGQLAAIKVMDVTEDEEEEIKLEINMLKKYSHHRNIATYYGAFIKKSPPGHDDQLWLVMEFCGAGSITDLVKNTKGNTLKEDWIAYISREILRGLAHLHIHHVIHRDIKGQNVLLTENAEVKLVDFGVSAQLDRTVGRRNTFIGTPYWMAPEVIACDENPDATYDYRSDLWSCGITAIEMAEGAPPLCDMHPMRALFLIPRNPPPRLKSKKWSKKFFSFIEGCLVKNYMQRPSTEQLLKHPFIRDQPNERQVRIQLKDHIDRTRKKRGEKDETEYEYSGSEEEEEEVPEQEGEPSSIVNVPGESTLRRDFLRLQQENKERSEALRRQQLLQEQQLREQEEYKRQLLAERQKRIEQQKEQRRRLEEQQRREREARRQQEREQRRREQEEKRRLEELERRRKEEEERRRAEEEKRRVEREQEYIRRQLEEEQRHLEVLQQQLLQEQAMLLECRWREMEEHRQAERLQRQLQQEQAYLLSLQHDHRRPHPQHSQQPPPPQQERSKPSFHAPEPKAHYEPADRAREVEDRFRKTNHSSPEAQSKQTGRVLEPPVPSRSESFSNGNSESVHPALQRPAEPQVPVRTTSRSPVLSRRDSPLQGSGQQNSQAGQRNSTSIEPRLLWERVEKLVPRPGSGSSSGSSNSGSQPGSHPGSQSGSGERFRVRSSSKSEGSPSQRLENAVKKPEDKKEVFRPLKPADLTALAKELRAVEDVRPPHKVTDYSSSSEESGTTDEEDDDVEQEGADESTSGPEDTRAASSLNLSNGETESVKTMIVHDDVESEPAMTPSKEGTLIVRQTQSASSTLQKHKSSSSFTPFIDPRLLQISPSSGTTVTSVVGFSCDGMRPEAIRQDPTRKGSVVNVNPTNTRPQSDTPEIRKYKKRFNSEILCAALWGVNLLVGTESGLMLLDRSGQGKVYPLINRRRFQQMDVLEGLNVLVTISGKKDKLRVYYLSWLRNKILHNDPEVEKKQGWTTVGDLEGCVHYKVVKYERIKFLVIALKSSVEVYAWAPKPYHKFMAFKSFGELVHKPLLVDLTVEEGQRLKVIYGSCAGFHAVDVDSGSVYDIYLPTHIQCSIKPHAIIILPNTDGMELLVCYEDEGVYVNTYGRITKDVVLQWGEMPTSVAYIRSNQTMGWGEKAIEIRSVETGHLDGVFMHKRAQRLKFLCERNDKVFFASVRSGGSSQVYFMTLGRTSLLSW
Excerpt: Signaling pathways mediating anticancer activity. […] We established the MAP4K4 kinase assay in-house and confirmed that the compounds are indeed potent MAP4K4 inhibitors.

[1] = tested on: caspase-3 and -7 activities; assay: Caspase-Glo 3/7 apoptosis assay; format: cell-based; details: 20 nM
Excerpt: Efficacy-related endpoints. We conducted an in-depth mechanism of action study in androgen-sensitive (LNCaP) and -insensitive (PC-3 and DU-145) prostate cancer cell lines.
Apoptosis assay. The Caspase-Glo® 3/7 Assay (Promega), a homogeneous, luminescent assay that measures caspase-3 and -7 activities, was used to access apoptosis induction.

BT549 = assay: Breast cancer cell line growth inhibition; format: cell-based; details: Homo sapiens, BT-549; BT549, triple negative; read-out: IC50 against breast cancer cell lines
Excerpt: (§2) Generally, their potency is positively correlated with MAP4K4 expression in cancer cell lines.

HS578T = assay: Breast cancer cell line growth inhibition; format: cell-based; details: Homo sapiens, Hs-578T, triple negative, read-out: IC50 against breast cancer cell lines
Excerpt: as §2

MDA-MB-231 = assay: Breast cancer cell line growth inhibition; format: cell-based; details: Homo sapiens; MDA-MB-231, triple negative; read-out: IC50 against breast cancer cell lines
Excerpt: as §2

T47D = assay: Breast cancer cell line growth inhibition; format: cell-based; details: Homo sapiens, ER (+), read-out: IC50 against breast cancer cell lines
Excerpt: as §2

MCF-7 = assay: Breast cancer cell line growth inhibition; format: cell-based; details: Homo sapiens, MCF7; MCF-7, ER (+); read-out: IC50 against breast cancer cell lines
Excerpt: as §2

PC-3 = assay: Prostate cancer cell proliferation assay; format: cell-based; details: Homo sapiens; PC-3, 72 hours; read-out: IC50 against prostate cancer cell lines
Excerpt: (§3) The dose-response curves of cell growth inhibition were consistent.
(§4) Cell proliferation assays.

DU-145 = assay: Prostate cancer cell proliferation assay; format: cell-based; details: Homo sapiens; DU-145, 72 hours; read-out: IC50 against prostate cancer cell lines
Excerpt: as §3, §4

LNCaP = assay: Prostate cancer cell proliferation assay; format: cell-based; details: Homo sapiens, 72 hours, read-out: IC50 against prostate cancer cell lines
Excerpt: as §3, §4

[2] = Metabolic stability in liver microsomes; format: in vitro ADME; details: NADPH, 10 μM
Procedure: The compounds are experimentally predicted to have a longer half-life in humans. We conducted metabolic stability studies in human and mouse liver microsomes. Metabolic stability in pooled human or mouse liver microsomes, in the presence of NADPH, was measured with 10 μM compound over 60 min.

[3] = In vivo pharmacokinetic study, oral formulations; details: mouse, plasma, 60 mg/kg, mice
Procedure: In vivo pharmacokinetic (PK) studies; oral bioavailability. We conducted pre-formulation studies and selected different oral formulations for mice PK studies to explore the effect of formulation on drug absorption.
The PK profiles of representative compounds (60 mg/kg) were determined in different oral formulations (HPC and PTTW) with groups of three mice per time point.

CCRFCEM = assay: Activity against cancer cell lines; format: cell-based
Excerpt: as §1

Structure (SMILES): COc1ccc2[nH]c(C(=O)c3ccc4[nH]ccc4c3)cc2c1 [Cmpd 1, (1H-indol-5-yl)(5-methoxy-1H-indol-2-yl)methanone]
- IC50 (ADRRES): 0.027 µM
- IC50 (A498): 52 nM
- IC50 (OVCAR4; Homo sapiens, OVCAR-4, OVCAR4): 90 nM
- IC50 (OVCAR4; OVCAR4): 56 nM
- IC50 (HCT15): 27 nM
- IC50 (LOXIMVI): 14 nM
- IC50 (SKMEL2): 63 nM
- IC50 (CAKI1): 23 nM
- IC50 (HL60; HL60): 24 nM
- IC50 (HL60; Homo sapiens, HL-60, HL60): 35 nM
- IC50 (SF295): 54 nM
- IC50 (OVCAR8; Homo sapiens, OVCAR-8, OVCAR8): 67 nM
- IC50 (OVCAR8; OVCAR8): 53 nM
- IC50 (MDAMB435): 21 nM
- IC50 (RXF393): 38 nM
- IC50 (UO31): 66 nM
- IC50 (SF539): 39 nM
- IC50 (MCF7): 59 nM
- IC50 (SKMEL5): 33 nM
- IC50 (MOLT4): 53 nM
- IC50 (NCIH522): 32 nM
- IC50 (M14): 38 nM
- IC50 (ACHN): 5.7 nM
- IC50 (SNB75; Homo sapiens, SNB-75, SNB75): 42 nM
- IC50 (SNB75; SNB75): 34 nM
- IC50 (MAP4K4): 160 nM

Structure (SMILES): COc1ccc2[nH]c(C(=O)c3ccc4[nH]nc(C)c4c3)cc2c1 [Cmpd 18, (5-methoxy-1H-indol-2-yl)(3-methyl-1H-indazol-5-yl)methanone]
- apoptosis induction ([1]; 24 hours treatment): significantly induced apoptosis
- apoptosis induction ([1]; 48 hours treatment): more profound apoptotic effect
- IC50 (BT549): 12 nM
- IC50 (HS578T): 13 nM
- IC50 (MDA-MB-231): 14 nM
- IC50 (T47D): 29 nM
- IC50 (MCF-7): 83 nM
- IC50 (PC-3): 11 nM
- IC50 (DU-145): 23 nM
- IC50 (LNCaP): 16 nM
- % of Parent Compound Remaining vs T = 0 min ([2]; human liver microsomes, 15 min): 72.9%
- % of Parent Compound Remaining vs T = 0 min ([2]; human liver microsomes, 30 min): 63.1%
- % of Parent Compound Remaining vs T = 0 min ([2]; human liver microsomes, 60 min): 53.0%
- % of Parent Compound Remaining vs T = 0 min ([2]; mouse liver microsomes, 15 min): 31.6%
- % of Parent Compound Remaining vs T = 0 min ([2]; mouse liver microsomes, 30 min): 9.9%
- % of Parent Compound Remaining vs T = 0 min ([2]; mouse liver microsomes, 60 min): 1.0%
- concentration at 0.5 h ([3]; oral 60 mg/kg in 0.5% HPC): 319 ± 106 ng/mL
- concentration at 4 h ([3]; oral 60 mg/kg in 0.5% HPC): 33 ± 21 ng/mL
- concentration at 8 h ([3]; oral 60 mg/kg in 0.5% HPC): 34.7 ± 18.8 ng/mL
- concentration at 24 h ([3]; oral 60 mg/kg in 0.5% HPC): 1.3 ± 2.3 ng/mL
- concentration at 0.5 h ([3]; oral 60 mg/kg in PTTW): 798 ± 204 ng/mL
- concentration at 4 h ([3]; oral 60 mg/kg in PTTW): 75.5 ± 19.3 ng/mL
- concentration at 8 h ([3]; oral 60 mg/kg in PTTW): 21.7 ± 11.1 ng/mL
- concentration at 24 h ([3]; oral 60 mg/kg in PTTW): 15.4 ± 7.2 ng/mL
- IC50 (MAP4K4): 140 nM

Structure (SMILES): COc1cccc2c1C(=O)c1c(O)c3c(c(O)c1C2=O)C[C@@](O)(C(=O)CO)C[C@@H]3O[C@H]1C[C@H](N)[C@H](O)[C@H](C)O1 [Doxorubicin, reference compound]
- IC50 (ADRRES): 11 µM
- IC50 (A498): 650 nM
- IC50 (OVCAR4; Homo sapiens, OVCAR-4, OVCAR4): 1900 nM
- IC50 (OVCAR4; OVCAR4): 1500 nM
- IC50 (HCT15): 1300 nM
- IC50 (LOXIMVI): 260 nM
- IC50 (SKMEL2): 680 nM
- IC50 (CAKI1): 180 nM
- IC50 (HL60; HL60): 130 nM
- IC50 (HL60; Homo sapiens, HL-60, HL60): 150 nM
- IC50 (SF295): 430 nM
- IC50 (MDAMB435): 970 nM
- IC50 (RXF393): 1000 nM
- IC50 (UO31): 2500 nM
- IC50 (SF539): 390 nM
- IC50 (MCF7): 410 nM
- IC50 (SKMEL5): 390 nM
- IC50 (MOLT4): 75 nM
- IC50 (NCIH522): 500 nM
- IC50 (M14): 810 nM
- IC50 (ACHN): 540 nM
- IC50 (CCRFCEM): 87 nM
- IC50 (CCRFCEM; Homo sapiens, CCRF-CEM): 47 nM
- IC50 (SNB75; Homo sapiens, SNB-75, SNB75): 610 nM
- IC50 (SNB75; SNB75): 580 nM
